# Data: patent publication US4221805A, “Method of inducing platelet antiaggregation activity” (priority 1978, dated 1980)
# Tests used:
# platelet aggregation = experiment: In vivo platelet antiaggregation activity; set-up: species or system male rats, Wistar strain; details: rats, single oral dose 3 mg/kg
# Protocol: This experiment was carried out on male rats of the Wistar strain having a weight of 320±20 grams. Both the MRAP2 and the aspirin (used as a comparison drug) were dissolved in a physiological solution, and the solutions, adjusted to pH 7.4, were administered orally in doeses of 3 mg/kg to two groups of three rats each. […] The concentration of the solution was adjusted to contain 100 mg of MRAP2 per ml. Blood samples were drawn from each animal 72 and 120 hours after treatment, for checking the platelet aggregation. In calculating the activity, the previous method was used (the average of the three maximum amplitudes of the curves obtained with the untreated rats was given the control figure of 100%).
# [1] = system: human PRP (Platelet Rich Plasma), platelet aggregation induced by ADP; experiment: In vitro platelet antiaggregation activity (Born method, ADP-induced); format: cell-based; details: Platelet, ADP 10^-3 mM
# Protocol: The method described by Born (Nature, 194, 927, 1962) was followed for this test, based on the increase in the platelet aggregation induced by ADP. The experiment was conducted using a human PRP (Platelet Rich Plasma) pool from four healthy volunteers who had not taken any drugs for ten days. The PRP was adjusted to 280,000±20,000 and kept at ambient temperature for the entire duration of the test.
# 400 μl of PRP and 100 μl of MRAP2 dissolved in a physiological solution and adjusted to a pH of 7.4 were placed in plastic test tubes. Three doses of the drug in question (0.181, 0.904 and 1.818 mg/ml) were used.
# Three dilutions of aspirin were prepared under the same conditions for use as a comparison drug. Two minutes after contact between the drug and PRP, the test tube was inserted into the aggregometer cell (EEI, Model 169 with Corning Recorder Mod.840). After 60 seconds, ADP (10^-3 mM) was added and the aggregation was recorded. In calculating the antiaggregation activity, reference was made to the maximum amplitude of the aggregation curved obtained with ADP. Assuming this amplitude to be 100, the amplitudes of the curves obtained with the various doses of MRAP2 and aspirin were calculated as a percentage.
# stomach (gastric lesion) = experiment: Ulcerogenic activity in rats after a single administration; format: in vivo, male albino rats, Wistar strain; details: rat, in vivo, po
# Protocol: The ulcerogenic activity of MRAP2 was tested both after a single administration of the drug, and after prolonged administration.
# In these tests, a total of 70 male albino rats of Wistar strain were used, having a weight of 200±20 grams.
# The MRAP2 was administered diluted in tap water.
# 40 rats, fasted for 18 hours before the experiment, were divided into four batches of ten animals and treated orally as follows:
# 3rd group: MRAP2 (50 mg/kg)
# 4th group: MRAP2 (125 mg/kg).
# The animals were killed after six hours. The stomach was withdrawn and the gastric lesion index was evaluated in terms of an arbitrary scale of values lying between 0. and 7 based on previous models proposed by other authors.
# Furthermore, the treatment was randomised in order to eliminate any possible polarisation of the data.
# The points given for gastric ulcerative lesions were as follows:
# (1) hyperaemia or slight capillary obstruction; or slight loss of the epithelium; or some petechiae even with pale mucosa without hyperaemia;
# (2) diffuse capillary obstructions or numerous petechiae; or diffuse loss of the epithelium; of a few surface lesions;
# (3) strong submucosa haemorrhage; or many petechiae and small surface lesions; or much anaemic mucosa (yellowish colour); or up to three small ulcers;
# (4) general pattern as in the previous numbers, plus up to ten small ulcers; or long erosions; or up to three medium sized ulcers;
# (5) pattern as in number 4, with up to 15 small ulcers; or up to 6 large ulcers;
# (6) pattern as previously, with up to ten large ulcers, plus small ulcers;
# (7) pattern as previously, plus up to ten large ulcers and small ulcers; cases of perforated ulcers.
smiles,measurement,setting,value
"CC(=O)Oc1ccccc1C(=O)O [aspirin, reference compound]",% platelet antiaggregation activity on day 3,platelet aggregation; day 3 (72 hours),25%
same,% platelet aggregation on day 3,"platelet aggregation; day 3 (72 hours), controls = 100",75%
same,% platelet antiaggregation activity on day 5,platelet aggregation; day 5 (120 hours),25%
same,% platelet aggregation on day 5,"platelet aggregation; day 5 (120 hours), controls = 100",75%
same,inhibition of platelet aggregation at 181 µg/mL,[1]; drug 0.181 mg/ml,5%
same,activity at 181 µg/mL,"[1]; drug 0.181 mg/ml, serum + ADP = 100",95%
same,inhibition of platelet aggregation at 904 µg/mL,[1]; drug 0.904 mg/ml,63%
same,activity at 904 µg/mL,"[1]; drug 0.904 mg/ml, serum + ADP = 100",37%
same,inhibition of platelet aggregation at 1818 µg/mL,[1]; drug 1.818 mg/ml,74%
same,activity at 1818 µg/mL,"[1]; drug 1.818 mg/ml, serum + ADP = 100",26%
"CCCCC1C(=O)N(c2ccccc2)N(c2ccccc2)C1=O [phenylbutazone, reference compound]",incidence of ulcerative lesions (in words),stomach (gastric lesion),very marked
